Results reported in publication PMC8788362, “Rational design and synthesis of 2-(1H-indazol-6-yl)-1H-benzo[d]imidazole derivatives as inhibitors targeting FMS-like tyrosine kinase 3 (FLT3) and its mutants” (Journal of Enzyme Inhibition and Medicinal Chemistry, 2022).
Residue numbers refer to the chain shown, from its start. Read-outs that look alike come from different tables or passages of the source. One block for each molecule: values may come before it.

How the values were obtained:
[1] = target: T1, c-MER (Homo sapiens, UniProt Q12866); assay: Kinase HotSpot kinase profiling; assay type: biochemical; details: read-out: % Inhibition c-MER
T1 construct: purchased Reaction Biology Corp. (Kinase HotSpot service)
Source text: (§1) (specific activity approx. 500 cpm/pmol, concentration as required).

[2] = target: T2, FYN (Homo sapiens, UniProt P06241); assay: Kinase HotSpot kinase profiling; assay type: biochemical
T2 construct: purchased Reaction Biology Corp. (Kinase HotSpot service)
Source text: as §1

[3] = target: T3, c-Src (Homo sapiens, UniProt P12931); assay: Kinase HotSpot kinase profiling; assay type: biochemical; details: read-out: % Inhibition c-Src
T3 construct: purchased Reaction Biology Corp. (Kinase HotSpot service)
Source text: as §1

[4] = target: T4, AKT1 (Homo sapiens, UniProt P31749); assay: Kinase HotSpot kinase profiling; assay type: biochemical; details: read-out: % Inhibition AKT1
T4 construct: purchased Reaction Biology Corp. (Kinase HotSpot service)
Source text: as §1

[5] = target: T5, BRAF (V599E) (Homo sapiens, UniProt P15056, V600E); assay: Kinase HotSpot kinase profiling; assay type: biochemical
T5 construct: purchased Reaction Biology Corp. (Kinase HotSpot service)
Source text: as §1

[6] = target: T6, ALK (Homo sapiens, UniProt Q9UM73); assay: Kinase HotSpot kinase profiling; assay type: biochemical; details: read-out: % Inhibition ALK
T6 construct: purchased Reaction Biology Corp. (Kinase HotSpot service)
Source text: as §1

[7] = target: T7, BTK (Homo sapiens, UniProt Q06187); assay: Kinase HotSpot kinase profiling; assay type: biochemical; details: read-out: % Inhibition BTK
T7 construct: purchased Reaction Biology Corp. (Kinase HotSpot service)
Source text: as §1

[8] = target: T8, AXL (Homo sapiens, UniProt P30530); assay: Kinase HotSpot kinase profiling; assay type: biochemical; details: read-out: % Inhibition AXL
T8 construct: purchased Reaction Biology Corp. (Kinase HotSpot service)
Source text: as §1

[9] = target: T9, ERK1 (Homo sapiens, UniProt P27361); assay: Kinase HotSpot kinase profiling; assay type: biochemical; details: read-out: % Inhibition ERK1
T9 construct: purchased Reaction Biology Corp. (Kinase HotSpot service)
Source text: as §1

[10] = target: T10, Aurora A (Homo sapiens, UniProt O14965); assay: Kinase HotSpot kinase profiling; assay type: biochemical; details: read-out: % Inhibition Aurora A
T10 construct: purchased Reaction Biology Corp. (Kinase HotSpot service)
Source text: as §1

[11] = target: T11, EGFR (Homo sapiens, UniProt P00533); assay: Kinase HotSpot kinase profiling; assay type: biochemical; details: read-out: % Inhibition EGFR
T11 construct: purchased Reaction Biology Corp. (Kinase HotSpot service)
Source text: as §1

[12] = target: FLT3-ITD (Homo sapiens, UniProt P36888, ITD); assay: Kinase HotSpot kinase profiling; assay type: biochemical
Source text: as §1

[13] = target: T12, AXL (R499C) (Homo sapiens, UniProt P30530, R499C); assay: Kinase HotSpot kinase profiling; assay type: biochemical; details: read-out: % Inhibition AXL (R499C)
T12 construct: purchased Reaction Biology Corp. (Kinase HotSpot service)
Source text: as §1

[14] = target: T13, FGFR3 (Homo sapiens, UniProt P22607); assay: Kinase HotSpot kinase profiling; assay type: biochemical; details: read-out: % Inhibition FGFR3
T13 construct: purchased Reaction Biology Corp. (Kinase HotSpot service)
Source text: as §1

[15] = target: T14, c-MET (Homo sapiens, UniProt P08581); assay: Kinase HotSpot kinase profiling; assay type: biochemical; details: read-out: % Inhibition c-MET
T14 construct: purchased Reaction Biology Corp. (Kinase HotSpot service)
Source text: as §1

[16] = target: T15, FMS (Homo sapiens, UniProt P07333); assay: Kinase HotSpot kinase profiling; assay type: biochemical; details: read-out: % Inhibition FMS
T15 construct: purchased Reaction Biology Corp. (Kinase HotSpot service)
Source text: as §1

[17] = target: T16, c-Kit (Homo sapiens, UniProt P10721); assay: Reaction Biology Kinase HotSpot kinase assay; assay type: biochemical
T16 construct: purchased Reaction Biology Corp. (Kinase HotSpot service)
Source text: as §1

[18] = target: T17, CAMKK1 (Homo sapiens, UniProt Q8N5S9); assay: Reaction Biology Kinase HotSpot kinase assay; assay type: biochemical
T17 construct: purchased Reaction Biology Corp. (Kinase HotSpot service)
Source text: as §1

[19] = target: T18, ABL1 (Homo sapiens, UniProt P00519); assay: Reaction Biology Kinase HotSpot kinase assay; assay type: biochemical
T18 construct: purchased Reaction Biology Corp. (Kinase HotSpot service)
Source text: as §1

[20] = target: T19, TRKC (Homo sapiens, UniProt Q16288); assay: Reaction Biology Kinase HotSpot kinase assay; assay type: biochemical
T19 construct: purchased Reaction Biology Corp. (Kinase HotSpot service)
Source text: as §1

[21] = target: T20, FLT3 (R595_E596 ins EY) (Homo sapiens, UniProt P36888, INS595EY); assay: Reaction Biology Kinase HotSpot radiometric kinase assay; assay type: biochemical
T20 construct: purchased Reaction Biology Corp. (Kinase HotSpot service)
Source text: as §1

[22] = target: FLT3 (ITD)-NPOS (Homo sapiens, UniProt P36888, ITD); assay: as above; assay type: biochemical
Source text: as §1

[23] = target: T21, FLT3 (ITD)-W51 (Homo sapiens, UniProt P36888, DUP595-601); assay: as above; assay type: biochemical
T21 construct: purchased Reaction Biology Corp. (Kinase HotSpot service)
Source text: as §1

[24] = target: T22, FLT3 (F594_R595 ins R) (Homo sapiens, UniProt P36888, INS594R); assay: as above; assay type: biochemical
T22 construct: purchased Reaction Biology Corp. (Kinase HotSpot service)
Source text: as §1

[25] = target: T23, FLT3 (Y591_V592 ins VDFREYEYD) (Homo sapiens, UniProt P36888, INS591VDFREYEYD); assay: as above; assay type: biochemical
T23 construct: purchased Reaction Biology Corp. (Kinase HotSpot service)
Source text: as §1

[26] = target: T24, FLT3 (D835Y) (Homo sapiens, UniProt P36888, D835Y); assay: as above; assay type: biochemical
T24 construct: purchased Reaction Biology Corp. (Kinase HotSpot service)
T24 sequence (P36888 27-993 D835Y): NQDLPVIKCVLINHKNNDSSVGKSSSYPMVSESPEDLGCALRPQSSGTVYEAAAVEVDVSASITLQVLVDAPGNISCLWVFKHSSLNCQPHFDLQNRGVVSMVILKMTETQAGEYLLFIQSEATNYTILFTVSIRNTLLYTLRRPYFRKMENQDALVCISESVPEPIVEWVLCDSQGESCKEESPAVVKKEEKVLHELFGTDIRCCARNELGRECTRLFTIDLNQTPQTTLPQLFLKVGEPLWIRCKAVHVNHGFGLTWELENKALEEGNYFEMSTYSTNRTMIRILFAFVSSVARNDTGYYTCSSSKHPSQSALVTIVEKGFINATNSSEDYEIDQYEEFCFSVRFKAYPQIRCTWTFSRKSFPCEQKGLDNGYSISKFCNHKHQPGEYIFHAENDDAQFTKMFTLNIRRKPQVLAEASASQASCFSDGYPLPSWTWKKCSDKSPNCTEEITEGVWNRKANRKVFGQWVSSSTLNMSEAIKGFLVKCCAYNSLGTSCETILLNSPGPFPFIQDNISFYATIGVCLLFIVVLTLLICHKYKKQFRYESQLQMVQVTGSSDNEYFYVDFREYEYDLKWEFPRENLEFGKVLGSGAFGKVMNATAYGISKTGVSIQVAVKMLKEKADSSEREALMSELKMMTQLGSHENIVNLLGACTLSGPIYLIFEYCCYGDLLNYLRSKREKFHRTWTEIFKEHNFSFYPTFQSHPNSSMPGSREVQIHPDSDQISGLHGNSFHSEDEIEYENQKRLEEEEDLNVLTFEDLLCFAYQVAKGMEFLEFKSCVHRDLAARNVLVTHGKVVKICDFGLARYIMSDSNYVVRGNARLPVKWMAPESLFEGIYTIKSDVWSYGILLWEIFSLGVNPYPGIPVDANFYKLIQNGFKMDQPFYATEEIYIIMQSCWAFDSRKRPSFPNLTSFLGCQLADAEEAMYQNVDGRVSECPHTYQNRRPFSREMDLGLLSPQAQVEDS
Source text: as §1

[27] = target: T25, FLT3 wild type (Homo sapiens, UniProt P36888); assay: as above; assay type: biochemical; details: ATP 10 µM
T25 construct: purchased Reaction Biology Corp. (Kinase HotSpot service)
T25 sequence (P36888 27-993): T24 sequence (P36888 27-993 D835Y) with Y809D
Source text: as §1

T17 sequence (Q8N5S9 whole entry): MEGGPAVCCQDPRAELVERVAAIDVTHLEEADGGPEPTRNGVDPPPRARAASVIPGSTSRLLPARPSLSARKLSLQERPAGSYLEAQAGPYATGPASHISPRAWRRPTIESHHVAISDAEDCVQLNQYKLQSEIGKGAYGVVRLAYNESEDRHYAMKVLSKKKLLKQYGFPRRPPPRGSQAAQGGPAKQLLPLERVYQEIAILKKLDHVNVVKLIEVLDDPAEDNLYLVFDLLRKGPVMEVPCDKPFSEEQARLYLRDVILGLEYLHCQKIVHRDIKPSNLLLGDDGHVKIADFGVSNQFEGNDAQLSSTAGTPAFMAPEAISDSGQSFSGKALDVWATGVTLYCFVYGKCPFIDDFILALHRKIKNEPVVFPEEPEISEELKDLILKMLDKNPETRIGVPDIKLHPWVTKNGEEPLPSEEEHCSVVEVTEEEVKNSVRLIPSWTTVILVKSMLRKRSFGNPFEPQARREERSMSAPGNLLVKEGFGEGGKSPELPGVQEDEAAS
T18 sequence (P00519 whole entry): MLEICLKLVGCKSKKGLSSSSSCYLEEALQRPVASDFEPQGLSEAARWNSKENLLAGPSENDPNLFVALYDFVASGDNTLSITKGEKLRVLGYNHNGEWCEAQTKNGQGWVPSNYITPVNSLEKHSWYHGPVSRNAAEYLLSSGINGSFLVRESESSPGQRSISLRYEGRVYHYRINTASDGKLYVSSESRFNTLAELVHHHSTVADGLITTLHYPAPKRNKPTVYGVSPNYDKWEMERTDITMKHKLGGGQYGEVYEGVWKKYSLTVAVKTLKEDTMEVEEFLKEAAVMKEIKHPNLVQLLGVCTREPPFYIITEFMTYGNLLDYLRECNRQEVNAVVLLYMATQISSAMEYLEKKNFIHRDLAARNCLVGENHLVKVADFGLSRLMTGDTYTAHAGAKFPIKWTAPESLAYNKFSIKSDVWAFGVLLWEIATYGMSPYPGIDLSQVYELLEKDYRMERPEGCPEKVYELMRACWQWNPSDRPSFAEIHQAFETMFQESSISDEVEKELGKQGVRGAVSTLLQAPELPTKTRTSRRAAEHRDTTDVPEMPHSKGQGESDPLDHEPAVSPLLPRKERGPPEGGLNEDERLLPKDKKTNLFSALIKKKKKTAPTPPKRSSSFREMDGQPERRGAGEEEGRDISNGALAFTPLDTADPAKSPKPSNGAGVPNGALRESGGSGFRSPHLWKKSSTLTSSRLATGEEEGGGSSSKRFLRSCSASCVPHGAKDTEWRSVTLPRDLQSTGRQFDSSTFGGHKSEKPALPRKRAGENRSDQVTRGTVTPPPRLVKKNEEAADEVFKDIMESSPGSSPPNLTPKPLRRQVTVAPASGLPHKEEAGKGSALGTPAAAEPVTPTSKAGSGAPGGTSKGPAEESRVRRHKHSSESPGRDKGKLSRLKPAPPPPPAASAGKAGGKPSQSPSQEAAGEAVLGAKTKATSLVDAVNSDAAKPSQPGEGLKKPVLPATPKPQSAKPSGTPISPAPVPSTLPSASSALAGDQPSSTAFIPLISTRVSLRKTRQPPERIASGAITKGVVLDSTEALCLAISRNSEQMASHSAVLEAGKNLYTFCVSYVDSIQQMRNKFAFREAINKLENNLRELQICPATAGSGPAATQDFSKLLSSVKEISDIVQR
T16 sequence (P10721 26-976): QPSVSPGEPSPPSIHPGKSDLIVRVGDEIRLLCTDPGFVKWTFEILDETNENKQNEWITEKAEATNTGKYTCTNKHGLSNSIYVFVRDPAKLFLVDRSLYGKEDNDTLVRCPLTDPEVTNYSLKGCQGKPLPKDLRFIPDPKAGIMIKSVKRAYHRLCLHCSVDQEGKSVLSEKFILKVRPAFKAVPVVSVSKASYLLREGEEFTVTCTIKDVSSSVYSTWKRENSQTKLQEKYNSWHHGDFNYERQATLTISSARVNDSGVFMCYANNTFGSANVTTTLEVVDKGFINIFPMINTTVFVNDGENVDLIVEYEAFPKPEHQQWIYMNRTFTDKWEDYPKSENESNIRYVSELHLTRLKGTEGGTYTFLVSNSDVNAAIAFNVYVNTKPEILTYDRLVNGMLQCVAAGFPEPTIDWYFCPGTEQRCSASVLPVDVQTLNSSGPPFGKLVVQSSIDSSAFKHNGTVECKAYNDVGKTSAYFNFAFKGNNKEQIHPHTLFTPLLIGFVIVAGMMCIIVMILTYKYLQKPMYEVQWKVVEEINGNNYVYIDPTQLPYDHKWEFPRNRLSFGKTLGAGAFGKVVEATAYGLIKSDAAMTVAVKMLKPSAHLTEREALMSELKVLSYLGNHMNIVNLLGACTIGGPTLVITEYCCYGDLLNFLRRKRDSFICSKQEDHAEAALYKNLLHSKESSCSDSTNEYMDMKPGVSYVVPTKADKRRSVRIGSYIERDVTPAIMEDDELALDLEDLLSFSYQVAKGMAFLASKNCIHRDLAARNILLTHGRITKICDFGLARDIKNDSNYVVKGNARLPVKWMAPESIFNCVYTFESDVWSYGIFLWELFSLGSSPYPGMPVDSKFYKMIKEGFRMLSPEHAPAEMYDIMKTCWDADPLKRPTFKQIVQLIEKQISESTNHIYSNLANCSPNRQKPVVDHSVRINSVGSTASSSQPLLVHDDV
T19 sequence (Q16288 32-839): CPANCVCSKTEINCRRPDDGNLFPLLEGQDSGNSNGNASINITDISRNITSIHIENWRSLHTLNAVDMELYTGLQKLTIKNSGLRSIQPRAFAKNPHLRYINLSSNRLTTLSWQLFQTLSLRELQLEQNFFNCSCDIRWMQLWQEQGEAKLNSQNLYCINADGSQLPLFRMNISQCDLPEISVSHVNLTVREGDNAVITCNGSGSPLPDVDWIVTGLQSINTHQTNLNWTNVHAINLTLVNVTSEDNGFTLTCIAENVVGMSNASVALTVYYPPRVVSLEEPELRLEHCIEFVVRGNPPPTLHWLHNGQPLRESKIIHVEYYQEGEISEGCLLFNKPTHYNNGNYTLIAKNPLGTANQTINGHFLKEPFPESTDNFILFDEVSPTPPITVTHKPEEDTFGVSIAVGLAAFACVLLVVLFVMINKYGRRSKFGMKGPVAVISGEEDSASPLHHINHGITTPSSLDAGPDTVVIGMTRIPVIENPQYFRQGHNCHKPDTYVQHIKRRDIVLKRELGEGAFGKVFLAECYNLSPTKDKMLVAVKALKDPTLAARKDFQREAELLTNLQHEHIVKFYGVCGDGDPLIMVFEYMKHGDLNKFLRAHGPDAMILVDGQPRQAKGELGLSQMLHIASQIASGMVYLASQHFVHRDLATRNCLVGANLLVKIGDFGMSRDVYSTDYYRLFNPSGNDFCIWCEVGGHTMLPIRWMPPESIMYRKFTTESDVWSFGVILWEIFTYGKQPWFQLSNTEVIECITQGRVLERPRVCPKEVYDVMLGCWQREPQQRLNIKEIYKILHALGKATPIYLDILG
T9 sequence (P27361 whole entry): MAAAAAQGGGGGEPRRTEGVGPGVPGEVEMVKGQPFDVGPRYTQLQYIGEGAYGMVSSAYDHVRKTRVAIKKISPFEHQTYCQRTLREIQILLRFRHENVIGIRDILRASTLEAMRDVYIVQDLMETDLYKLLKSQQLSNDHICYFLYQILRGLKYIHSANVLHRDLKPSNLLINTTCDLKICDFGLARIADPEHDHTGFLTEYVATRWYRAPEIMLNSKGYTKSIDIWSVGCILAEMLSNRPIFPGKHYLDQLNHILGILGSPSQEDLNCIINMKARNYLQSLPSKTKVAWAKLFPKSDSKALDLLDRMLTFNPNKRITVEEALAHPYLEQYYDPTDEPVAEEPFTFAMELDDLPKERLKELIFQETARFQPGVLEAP
T7 sequence (Q06187 whole entry): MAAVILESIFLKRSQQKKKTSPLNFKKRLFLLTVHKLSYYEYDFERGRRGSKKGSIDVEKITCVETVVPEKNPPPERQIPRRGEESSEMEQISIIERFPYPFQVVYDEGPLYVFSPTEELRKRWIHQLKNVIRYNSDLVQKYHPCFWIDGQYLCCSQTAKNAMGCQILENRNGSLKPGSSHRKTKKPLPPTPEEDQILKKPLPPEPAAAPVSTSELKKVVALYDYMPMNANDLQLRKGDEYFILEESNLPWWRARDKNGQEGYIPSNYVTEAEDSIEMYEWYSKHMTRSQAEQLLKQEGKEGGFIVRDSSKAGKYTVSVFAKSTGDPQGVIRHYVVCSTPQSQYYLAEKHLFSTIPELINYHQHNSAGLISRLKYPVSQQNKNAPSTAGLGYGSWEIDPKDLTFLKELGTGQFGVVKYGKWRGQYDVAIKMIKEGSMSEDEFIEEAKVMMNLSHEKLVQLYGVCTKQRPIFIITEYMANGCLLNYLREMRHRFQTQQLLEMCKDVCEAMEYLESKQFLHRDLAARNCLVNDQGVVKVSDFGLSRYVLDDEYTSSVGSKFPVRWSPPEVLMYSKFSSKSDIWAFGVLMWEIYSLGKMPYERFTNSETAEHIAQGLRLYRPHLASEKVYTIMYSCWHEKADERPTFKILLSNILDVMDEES
T5 sequence (P15056 416-766 V600E limits assumed): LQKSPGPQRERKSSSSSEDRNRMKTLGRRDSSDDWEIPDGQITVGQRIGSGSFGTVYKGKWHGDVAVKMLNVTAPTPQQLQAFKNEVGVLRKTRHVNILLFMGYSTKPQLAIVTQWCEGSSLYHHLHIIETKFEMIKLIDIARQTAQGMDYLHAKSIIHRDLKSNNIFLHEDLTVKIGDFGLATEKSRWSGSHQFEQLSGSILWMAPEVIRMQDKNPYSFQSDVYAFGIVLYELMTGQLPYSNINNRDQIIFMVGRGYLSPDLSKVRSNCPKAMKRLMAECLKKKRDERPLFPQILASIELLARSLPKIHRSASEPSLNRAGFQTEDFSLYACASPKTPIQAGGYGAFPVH

SMILES: CCN1CCN(Cc2cc(C(=O)Nc3ccc4[nH]c(-c5ccc6cn[nH]c6c5)nc4c3)cc(C(F)(F)F)c2)CC1 [8r, N-(2-(1H-Indazol-6-yl)-1H-benzo[d]imidazol-5-yl)-3-((4-ethylpiperazin-1-yl)methyl)-5-(trifluoromethyl)benzamide]
inhibition at 1 µM [1]: 7.3%
inhibition at 1 µM [2]: 18%
inhibition at 1 µM [3]: 1.94%
inhibition at 1 µM [4]: 3.09%
inhibition at 1 µM [5]: 1%
inhibition at 1 µM [6]: 7.5%
inhibition at 1 µM [7]: 17.5%
inhibition at 1 µM [8]: 1.88%
inhibition at 1 µM [9]: 0%
inhibition at 1 µM [10]: 7.47%
inhibition at 1 µM [11]: 0.274%
inhibition at 1 µM [12]: 88%
inhibition at 1 µM [13]: 6.64%
inhibition at 1 µM [14]: 0%
inhibition at 1 µM [15]: 6.53%
inhibition at 1 µM [16]: 0.531%
IC50 [17]: 4570 nM
inhibition at 1 µM ([17]; read-out: % Inhibition c-Kit): 19%
IC50 [18]: 395 nM
inhibition at 1 µM ([18]; read-out: % Inhibition CAMKK1): > 20%
inhibition at 1 µM ([18]; read-out: % Inhibition CAMKK1, 8r at 1 µM single dose): 32.5%
IC50 [19]: 3090 nM
inhibition at 1 µM ([19]; read-out: % Inhibition ABL1): 18.4%
IC50 [20]: 1520 nM
inhibition at 1 µM [20]: > 20%
melting point: 265 to 267 °C
IC50 [21]: 24.8 nM
inhibition at 1 µM ([21]; read-out: % Inhibition FLT3 (R595_E596insEY)): 93.9%
IC50 [22]: 41.5 nM
inhibition at 1 µM [22]: 88%
IC50 [23]: 22.8 nM
inhibition at 1 µM ([23]; read-out: % Inhibition FLT3 (ITD)-W51): 93.9%
IC50 [24]: 37.3 nM
inhibition at 1 µM ([24]; read-out: % Inhibition FLT3 (F594_R595insR)): 92%
IC50 [25]: 49.5 nM
inhibition at 1 µM ([25]; read-out: % Inhibition FLT3 (Y591_V592insVDFREYEYD)): 90.9%

melting point: 175 to 177 °C
IC50 [26]: 25 nM
IC50 ([27]; read-out: FLT3 IC50): 158 nM
SMILES: CN1CCC(Nc2cc(C(=O)Nc3ccc4[nH]c(-c5ccc6cn[nH]c6c5)nc4c3)cc(C(F)(F)F)c2)CC1 [8s, N-(2-(1H-Indazol-6-yl)-1H-benzo[d]imidazol-5-yl)-3-((1-methylpiperidin-4-yl)amino)-5-(trifluoromethyl)benzamide]

melting point: 154 to 156 °C
IC50 [26]: 131 nM
IC50 ([27]; read-out: FLT3 IC50): 409 nM
SMILES: O=C(Nc1ccc2[nH]c(-c3ccc4cn[nH]c4c3)nc2c1)c1cc(N2CCN(C3CC3)CC2)cc(C(F)(F)F)c1 [8p, N-(2-(1H-Indazol-6-yl)-1H-benzo[d]imidazol-5-yl)-3–(4-cyclopropylpiperazin-1-yl)-5-(trifluoromethyl)benzamide]

melting point: 293 to 295 °C
IC50 [26]: 145 nM
IC50 ([27]; read-out: FLT3 IC50): 743 nM
SMILES: CN1CCC(Oc2ccc(C(=O)Nc3ccc4[nH]c(-c5ccc6cn[nH]c6c5)nc4c3)cc2C(F)(F)F)CC1 [8x, N-(2-(1H-Indazol-6-yl)-1H-benzo[d]imidazol-5-yl)-4-((1-methylpiperidin-4-yl)oxy)-3-(trifluoromethyl)benzamide]

melting point: 195 to 196 °C
IC50 [26]: 151 nM
IC50 ([27]; read-out: FLT3 IC50): 1030 nM
SMILES: O=C(Nc1ccc2[nH]c(-c3ccc4cn[nH]c4c3)nc2c1)c1cc(N2CCOCC2)cc(C(F)(F)F)c1 [8d, N-(2-(1H-Indazol-6-yl)-1H-benzo[d]imidazol-5-yl)-3-morpholino-5-(trifluoromethyl)benzamide]

melting point: 215 to 217 °C
IC50 [26]: 84 nM
IC50 ([27]; read-out: FLT3 IC50): 676 nM
SMILES: O=C(Nc1ccc2[nH]c(-c3ccc4cn[nH]c4c3)nc2c1)c1ccc(Cl)c(C(F)(F)F)c1 [8i, N-(2-(1H-Indazol-6-yl)-1H-benzo[d]imidazol-5-yl)-4-chloro-3-(trifluoromethyl)benzamide]

melting point: 153 to 154 °C
IC50 [26]: 46 nM
IC50 ([27]; read-out: FLT3 IC50): 66 nM
IC50 ([27]; read-out: FLT3 wild type IC50): 65.9 nM
SMILES: CCN1CCN(c2cc(C(=O)Nc3ccc4[nH]c(-c5ccc6cn[nH]c6c5)nc4c3)cc(C(F)(F)F)c2)CC1(C)C [8z, N-(2-(1H-Indazol-6-yl)-1H-benzo[d]imidazol-5-yl)-3–(4-ethyl-3,3-dimethylpiperazin-1-yl)-5-(trifluoromethyl)benzamide]
